Data taken from ChEMBL document CHEMBL1125174, “Conformationally restricted polysubstituted biphenyl derivatives with angiotensin II receptors antagonist properties” (J Med Chem, 1991).

Organism: Oryctolagus cuniculus
Assay: The compound was tested for antagonism of AII-induced contraction of rabbit aorta rings.
Format: functional
Conditions: read-out: pA2 (converted)

Structure (SMILES) | Kb
CCCCc1nc(CO)c(Cl)n1Cc1cc(OC)c(-c2ccccc2C(=O)O)c(OC)c1 | 3.16 µM
CCCCc1nc(Cl)c(CO)n1Cc1ccc(-c2ccccc2C(=O)O)cc1 | 0.0794 µM
